Assay results from patent US20260092071A1, “COMPOUNDS AND COMPOSITIONS AS SMARCA2/4 DEGRADERS AND USES THEREOF” (REGENTS OF THE UNIVERSITY OF MICHIGAN, priority 2022, published 2026).

Key:
[1] = biological target: SMARCA2 (Homo sapiens, UniProt P51531); assay: HiBit assay in engineered HT1080 CRISPR knock-in cell, 6 hrs (B series), SMARCA2; type: cell-based; conditions: 6 hrs incubation; for DC50: HT1080 CRISPR knock-in cells, read-out: SMARC A2 HT1080 HiBit DC50; for Dmax: HT-1080, HT1080 CRISPR knock-in cells, read-out: SMARC A2 HT1080 HiBit Dmax (%)
Summary of the method: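 HT1080 CRISPR knock-in cells carrying the HiBiT tag were seeded onto compounds (final DMSO 0.1%) and incubated 6 hrs at 37° C, 5% CO2. Remaining tagged protein was detected by lytic HiBiT luminescence after adding LgBiT protein and substrate, with LgBiT-free wells serving as negative control.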

[2] = biological target: SMARCA4 (Homo sapiens, UniProt P51532); assay: HiBit assay in engineered HT1080 CRISPR knock-in cell, 6 hrs (B series), SMARCA4; type: cell-based; conditions: 6 hrs incubation; for DC50: HT1080 CRISPR knock-in cells, read-out: SMARC A4 HT1080 HiBit DC50; for Dmax: HT-1080, HT1080 CRISPR knock-in cells, read-out: SMARC A4 HT1080 HiBit Dmax(%)
Summary of the method: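 Protein abundance is measured in HiBiT-tagged HT1080 CRISPR knock-in cells after a 6 hr compound treatment (0.1% DMSO) by lytic Nano-Glo HiBiT luminescence.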

Sequence of SMARCA2 (P51531 whole entry): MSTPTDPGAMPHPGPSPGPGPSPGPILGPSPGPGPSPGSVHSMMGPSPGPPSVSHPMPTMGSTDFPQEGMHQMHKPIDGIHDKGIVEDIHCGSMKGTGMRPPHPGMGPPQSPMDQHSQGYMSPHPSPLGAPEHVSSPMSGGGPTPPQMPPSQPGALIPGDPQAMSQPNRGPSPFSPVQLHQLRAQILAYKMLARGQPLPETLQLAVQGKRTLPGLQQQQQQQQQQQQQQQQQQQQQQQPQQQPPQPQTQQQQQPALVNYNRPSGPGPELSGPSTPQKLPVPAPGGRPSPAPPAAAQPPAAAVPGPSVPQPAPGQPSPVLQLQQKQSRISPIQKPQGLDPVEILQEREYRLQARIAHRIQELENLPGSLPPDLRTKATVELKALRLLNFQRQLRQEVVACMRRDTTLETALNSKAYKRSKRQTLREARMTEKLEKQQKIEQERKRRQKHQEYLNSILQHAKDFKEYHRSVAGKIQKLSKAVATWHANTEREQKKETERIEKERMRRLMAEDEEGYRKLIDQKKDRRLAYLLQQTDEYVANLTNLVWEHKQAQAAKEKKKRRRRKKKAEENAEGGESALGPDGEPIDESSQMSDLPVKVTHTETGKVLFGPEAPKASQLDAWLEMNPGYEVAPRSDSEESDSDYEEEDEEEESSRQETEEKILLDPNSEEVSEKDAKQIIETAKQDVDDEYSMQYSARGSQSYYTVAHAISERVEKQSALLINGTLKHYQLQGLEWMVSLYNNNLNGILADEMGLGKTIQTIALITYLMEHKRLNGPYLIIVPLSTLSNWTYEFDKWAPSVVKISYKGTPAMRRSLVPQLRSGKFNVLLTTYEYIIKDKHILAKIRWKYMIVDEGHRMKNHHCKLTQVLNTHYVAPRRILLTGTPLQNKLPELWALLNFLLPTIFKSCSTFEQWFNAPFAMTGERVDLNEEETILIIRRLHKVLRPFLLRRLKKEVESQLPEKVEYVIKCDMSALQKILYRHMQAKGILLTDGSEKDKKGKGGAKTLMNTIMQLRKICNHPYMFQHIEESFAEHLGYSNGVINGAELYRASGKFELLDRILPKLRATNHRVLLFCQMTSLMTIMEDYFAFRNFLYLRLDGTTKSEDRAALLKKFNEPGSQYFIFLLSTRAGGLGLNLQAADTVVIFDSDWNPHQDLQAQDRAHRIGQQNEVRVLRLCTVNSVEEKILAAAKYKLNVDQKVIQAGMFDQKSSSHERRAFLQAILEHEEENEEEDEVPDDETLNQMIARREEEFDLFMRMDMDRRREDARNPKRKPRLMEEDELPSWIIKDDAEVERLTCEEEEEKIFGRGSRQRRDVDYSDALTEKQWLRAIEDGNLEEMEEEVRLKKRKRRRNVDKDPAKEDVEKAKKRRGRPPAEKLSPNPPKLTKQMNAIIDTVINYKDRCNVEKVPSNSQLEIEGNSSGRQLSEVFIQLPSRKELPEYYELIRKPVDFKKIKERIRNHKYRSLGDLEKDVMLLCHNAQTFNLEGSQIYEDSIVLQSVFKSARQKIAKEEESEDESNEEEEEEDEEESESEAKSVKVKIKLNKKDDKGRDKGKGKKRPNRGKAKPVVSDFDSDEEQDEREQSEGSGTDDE
Sequence of SMARCA4 (P51532 whole entry): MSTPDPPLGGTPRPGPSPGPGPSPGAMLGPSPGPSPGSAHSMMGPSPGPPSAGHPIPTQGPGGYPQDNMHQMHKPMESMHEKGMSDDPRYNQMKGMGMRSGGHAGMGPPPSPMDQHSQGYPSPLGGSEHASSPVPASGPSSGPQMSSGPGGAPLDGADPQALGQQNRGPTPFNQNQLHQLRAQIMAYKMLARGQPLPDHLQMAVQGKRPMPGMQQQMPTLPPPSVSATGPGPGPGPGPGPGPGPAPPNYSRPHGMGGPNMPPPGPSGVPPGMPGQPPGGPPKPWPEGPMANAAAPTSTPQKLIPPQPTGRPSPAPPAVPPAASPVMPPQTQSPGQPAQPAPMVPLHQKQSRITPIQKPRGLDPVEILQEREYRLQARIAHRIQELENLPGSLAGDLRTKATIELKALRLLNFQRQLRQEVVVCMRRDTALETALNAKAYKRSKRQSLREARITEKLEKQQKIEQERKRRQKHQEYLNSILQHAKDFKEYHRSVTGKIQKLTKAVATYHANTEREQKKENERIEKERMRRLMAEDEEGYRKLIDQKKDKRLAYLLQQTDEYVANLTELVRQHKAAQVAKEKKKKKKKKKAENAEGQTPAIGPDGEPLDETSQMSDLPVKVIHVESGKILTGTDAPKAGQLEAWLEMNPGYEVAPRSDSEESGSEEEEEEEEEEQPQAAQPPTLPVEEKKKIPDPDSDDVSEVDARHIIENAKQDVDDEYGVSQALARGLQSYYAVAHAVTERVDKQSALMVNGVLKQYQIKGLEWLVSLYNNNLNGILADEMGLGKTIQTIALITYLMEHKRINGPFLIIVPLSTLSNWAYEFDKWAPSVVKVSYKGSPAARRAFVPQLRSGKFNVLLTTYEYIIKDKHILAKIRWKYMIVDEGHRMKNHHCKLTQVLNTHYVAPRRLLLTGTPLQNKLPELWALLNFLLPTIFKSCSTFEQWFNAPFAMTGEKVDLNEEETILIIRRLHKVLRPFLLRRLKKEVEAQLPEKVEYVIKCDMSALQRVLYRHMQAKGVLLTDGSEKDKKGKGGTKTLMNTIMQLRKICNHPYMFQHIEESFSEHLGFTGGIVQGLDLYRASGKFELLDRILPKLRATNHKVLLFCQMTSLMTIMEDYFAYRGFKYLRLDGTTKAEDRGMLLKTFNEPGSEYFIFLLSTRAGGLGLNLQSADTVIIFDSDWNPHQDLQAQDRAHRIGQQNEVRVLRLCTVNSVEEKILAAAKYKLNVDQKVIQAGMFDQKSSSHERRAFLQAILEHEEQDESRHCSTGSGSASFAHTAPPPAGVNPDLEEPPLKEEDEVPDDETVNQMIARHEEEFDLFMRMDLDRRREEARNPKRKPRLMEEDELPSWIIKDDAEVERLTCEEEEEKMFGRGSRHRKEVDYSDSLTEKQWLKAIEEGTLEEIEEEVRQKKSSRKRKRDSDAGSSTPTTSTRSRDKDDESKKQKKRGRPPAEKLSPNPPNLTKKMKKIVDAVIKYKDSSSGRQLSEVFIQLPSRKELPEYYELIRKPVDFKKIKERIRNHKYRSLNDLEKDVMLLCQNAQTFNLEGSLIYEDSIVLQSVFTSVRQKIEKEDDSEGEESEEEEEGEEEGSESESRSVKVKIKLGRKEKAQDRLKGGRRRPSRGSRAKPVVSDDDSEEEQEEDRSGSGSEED

**Q.** What does the source list for `CC#Cc1ccc([C@H](C)NC(=O)[C@@H]2C[C@@H](O)CN2C(=O)[C@H](C(C)C)n2cc([C@H]3CC[C@H](CN4CCC(c5ccc6c(c5)-n5c(nc(=O)c7c(Cl)cccc75)C6(C)C)CC4)CC3)nn2)cc1` [Compound B131, (2S,4R)-1-((S)-2-(4-((1r,4S)-4-((4-(4-chloro-7,7-dimethyl-5-oxo-5,7-dihydroindolo[1,2-a]quinazolin-10-yl)piperidin-1-yl)methyl)cyclohexyl)-1H-1,2,3-triazol-1-yl)-3-methylbutanoyl)-4-hydroxy-N-((S)-1-(4-(prop-1-yn-1-yl)phenyl)ethyl)pyrrolidine-2-carboxamide]?
**A.** DC50 [1]: < 100 nM; Dmax [1]: > 90%; DC50 [2]: < 100 nM; Dmax [2]: 50 to 69%

**Q.** Which DC50 [1] does the source give for `Cc1ncsc1-c1ccc([C@H](CN2CCOCC2)NC(=O)[C@@H]2C[C@@H](O)CN2C(=O)[C@H](c2cc(N3CCC(c4ccc5c(c4)C(C)(C)c4nc(=O)c6c(Cl)cccc6n4-5)CC3)no2)C(C)C)cc1` [Compound B109, (2S,4R)-1-(2-(3-(4-(4-chloro-7,7-dimethyl-5-oxo-5,7-dihydroindolo[1,2-a]quinazolin-9-yl)piperidin-1-yl)isoxazol-5-yl)-3-methylbutanoyl)-4-hydroxy-N—((R)-1-(4-(4-methylthiazol-5-yl)phenyl)-2-morpholinoethyl)pyrrolidine-2-carboxamide] here?
**A.** < 100 nM

**Q.** And the Dmax [1]?
**A.** > 90%

**Q.** What about the DC50 [2] of the same molecule?
**A.** 100 to 500 nM

**Q.** What about the Dmax [2] of the same molecule?
**A.** 50 to 69%

**Q.** How did the DC50 [1] turn out when `Cc1cc(C(C(=O)N2C[C@H](O)C[C@H]2C(=O)N[C@@H](C)c2ccc(-c3scnc3C#CCOCCCN3CCC(c4cccc5c4C(C)(C)c4nc(=O)c6c(Cl)cccc6n4-5)CC3)cc2)C(C)C)on1` (stereo partly drawn) [Compound B145, (2S,4R)-N-((S)-1-(4-(4-(3-(3-(4-(4-chloro-7,7-dimethyl-5-oxo-5,7-dihydroindolo[1,2-a]quinazolin-8-yl)piperidin-1-yl)propoxy)prop-1-yn-1-yl)thiazol-5-yl)phenyl)ethyl)-4-hydroxy-1-(3-methyl-2-(3-methylisoxazol-5-yl)butanoyl)pyrrolidine-2-carboxamide] was run?
**A.** 100 to 500 nM

**Q.** What about the Dmax [1] of the same molecule?
**A.** 70 to 90%

**Q.** And the DC50 [2]?
**A.** 100 to 500 nM

**Q.** And the Dmax [2]?
**A.** 50 to 69%

**Q.** For `Cc1ncsc1-c1ccc([C@H](C)NC(=O)[C@@H]2C[C@@H](O)CN2C(=O)[C@@H](c2cc(OC3CCC(CN4CCC(c5ccc6c(c5)-n5c(nc(=O)c7c(Cl)cccc75)C6(C)C)CC4)CC3)no2)C(C)C)cc1` (stereo partly drawn) [Compound B38, (2S,4R)-1-((R)-2-(3-((4-((4-(4-chloro-7,7-dimethyl-5-oxo-5,7-dihydroindolo[1,2-a]quinazolin-10-yl)piperidin-1-yl)methyl)cyclohexyl)oxy)isoxazol-5-yl)-3-methylbutanoyl)-4-hydroxy-N-((S)-1-(4-(4-methylthiazol-5-yl)phenyl)ethyl)pyrrolidine-2-carboxamide], which DC50 [1] is on record?
**A.** < 100 nM

**Q.** And the Dmax [1]?
**A.** > 90%

**Q.** And the DC50 [2]?
**A.** < 100 nM

**Q.** And the Dmax [2]?
**A.** 70 to 90%

**Q.** `Cc1cc(C(C(=O)N2C[C@H](O)C[C@H]2C(=O)N[C@@H](C)c2ccc(-c3scnc3C#CCOCCOCCN3CCC(c4ccc5c(c4)-n4c(nc(=O)c6c(Cl)cccc64)C5(C)C)CC3)cc2)C(C)C)on1` (stereo partly drawn) [Compound B104, (2S,4R)—N—((S)-1-(4-(4-(3-(2-(2-(4-(4-chloro-7,7-dimethyl-5-oxo-5,7-dihydroindolo[1,2-a]quinazolin-10-yl)piperidin-1-yl)ethoxy)ethoxy)prop-1-yn-1-yl)thiazol-5-yl)phenyl)ethyl)-4-hydroxy-1-(3-methyl-2-(3-methylisoxazol-5-yl)butanoyl)pyrrolidine-2-carboxamide] was tested. Which DC50 [1] did it give?
**A.** < 100 nM

**Q.** And the Dmax [1]?
**A.** > 90%

**Q.** What about the DC50 [2] of the same molecule?
**A.** 100 to 500 nM

**Q.** What about the Dmax [2] of the same molecule?
**A.** 70 to 90%

**Q.** Which results are given for `Cc1ncsc1-c1ccc([C@H](C)NC(=O)[C@@H]2C[C@@H](O)CN2C(=O)[C@@H](NC(=O)C23CCC(CN4CCC(c5ccc6c(c5)C(C)(C)c5nc(=O)c7c(Cl)cccc7n5-6)CC4)(CC2)C3)C(C)(C)C)cc1` [Compound B18, (2S,4R)-1-((S)-2-(4-((4-(4-chloro-7,7-dimethyl-5-oxo-5,7-dihydroindolo[1,2-a]quinazolin-9-yl)piperidin-1-yl)methyl)bicyclo[2.2.1]heptane-1-carboxamido)-3,3-dimethylbutanoyl)-4-hydroxy-N-((S)-1-(4-(4-methylthiazol-5-yl)phenyl)ethyl)pyrrolidine-2-carboxamide]?
**A.** DC50 [1]: < 100 nM; Dmax [1]: > 90%; DC50 [2]: < 100 nM; Dmax [2]: 70 to 90%

**Q.** `Cc1ncsc1-c1ccc([C@H](C)NC(=O)[C@@H]2C[C@@H](O)CN2C(=O)[C@@H](c2cc(OCCN3CCC(c4ccc5c(c4)C(C)(C)c4nc(=O)c6c(Cl)cccc6n4-5)CC3)no2)C(C)C)cc1` [Compound B4, (2S,4R)-1-((R)-2-(3-(2-(4-(4-chloro-7,7-dimethyl-5-oxo-5,7-dihydroindolo[1,2-a]quinazolin-9-yl)piperidin-1-yl)ethoxy)isoxazol-5-yl)-3-methylbutanoyl)-4-hydroxy-N—((S)-1-(4-(4-methylthiazol-5-yl)phenyl)ethyl)pyrrolidine-2-carboxamide] was tested. Which DC50 [1] did it give?
**A.** < 100 nM

**Q.** And the Dmax [1]?
**A.** > 90%

**Q.** And the DC50 [2]?
**A.** < 100 nM

**Q.** And the Dmax [2]?
**A.** 70 to 90%

**Q.** With `Cc1ncsc1-c1ccc([C@H](CN2CCOCC2)NC(=O)[C@@H]2C[C@@H](O)CN2C(=O)[C@H](C(C)C)n2cc([C@H]3CC[C@H](CN4CCN(c5ccc6c(c5)-n5c(nc(=O)c7c(Cl)cccc75)C6(C)C)CC4)CC3)nn2)cc1` [Compound B129, (2S,4R)-1-((S)-2-(4-((1r,4S)-4-((4-(4-chloro-7,7-dimethyl-5-oxo-5,7-dihydroindolo[1,2-a]quinazolin-10-yl)piperazin-1-yl)methyl)cyclohexyl)-1H-1,2,3-triazol-1-yl)-3-methylbutanoyl)-4-hydroxy-N-((R)-1-(4-(4-methylthiazol-5-yl)phenyl)-2-morpholinoethyl)pyrrolidine-2-carboxamide] as the molecule, how does the DC50 [1] read?
**A.** < 100 nM

**Q.** And the Dmax [1]?
**A.** > 90%

**Q.** What about the DC50 [2] of the same molecule?
**A.** < 100 nM

**Q.** What about the Dmax [2] of the same molecule?
**A.** 70 to 90%

**Q.** `Cc1cc(C(C(=O)N2C[C@H](O)C[C@H]2C(=O)N[C@@H](C)c2ccc(-c3scnc3C#CCOCCCN3CCC(c4ccc5c(c4)-n4c(nc(=O)c6c(Cl)cccc64)C5(C)C)CC3)cc2)C(C)C)on1` (stereo partly drawn) [Compound B103, (2S,4R)-N-((S)-1-(4-(4-(3-(3-(4-(4-chloro-7,7-dimethyl-5-oxo-5,7-dihydroindolo[1,2-a]quinazolin-10-yl)piperidin-1-yl)propoxy)prop-1-yn-1-yl)thiazol-5-yl)phenyl)ethyl)-4-hydroxy-1-(3-methyl-2-(3-methylisoxazol-5-yl)butanoyl)pyrrolidine-2-carboxamide] was tested. Which DC50 [1] did it give?
**A.** < 100 nM

**Q.** What about the Dmax [1] of the same molecule?
**A.** > 90%

**Q.** And the DC50 [2]?
**A.** < 100 nM

**Q.** And the Dmax [2]?
**A.** > 90%

**Q.** Which DC50 [1] does the source give for `CNC(=O)[C@@H]1C[C@@H](O)CN1C(=O)[C@H](C(C)C)n1cc([C@H]2CC[C@H](CN3CCC(c4ccc5c(c4)-n4c(nc(=O)c6c(Cl)cccc64)C5(C)C)CC3)CC2)nn1` [Compound B59, (2S,4R)-1-((S)-2-(4-((1r,4S)-4-((4-(4-chloro-7,7-dimethyl-5-oxo-5,7-dihydroindolo[1,2-a]quinazolin-10-yl)piperidin-1-yl)methyl)cyclohexyl)-1H-1,2,3-triazol-1-yl)-3-methylbutanoyl)-4-hydroxy-N-methylpyrrolidine-2-carboxamide] here?
**A.** 100 to 500 nM

**Q.** And the Dmax [1]?
**A.** 50 to 69%

**Q.** And the DC50 [2]?
**A.** > 1000 nM

**Q.** And the Dmax [2]?
**A.** < 50%
